Assay results reported in US9624214B2, “Amino-substituted imidazo[1,2-a]pyridinecarboxamides and their use” (BAYER PHARMA AKTIENGESELLSCHAFT, priority 2012, dated 2017).

The molecules below were run against T1, recombinant guanylate cyclase reporter cell line (Rattus norvegicus, UniProt P19686+P20595) (assay: B-2. Action on recombinant guanylate cyclase reporter cell line). Details: MEC = minimal effective concentration; in some cases mean values from individual determinations.
T1 construct: expressed in transfected cells
T1 sequence (P20595 1-619): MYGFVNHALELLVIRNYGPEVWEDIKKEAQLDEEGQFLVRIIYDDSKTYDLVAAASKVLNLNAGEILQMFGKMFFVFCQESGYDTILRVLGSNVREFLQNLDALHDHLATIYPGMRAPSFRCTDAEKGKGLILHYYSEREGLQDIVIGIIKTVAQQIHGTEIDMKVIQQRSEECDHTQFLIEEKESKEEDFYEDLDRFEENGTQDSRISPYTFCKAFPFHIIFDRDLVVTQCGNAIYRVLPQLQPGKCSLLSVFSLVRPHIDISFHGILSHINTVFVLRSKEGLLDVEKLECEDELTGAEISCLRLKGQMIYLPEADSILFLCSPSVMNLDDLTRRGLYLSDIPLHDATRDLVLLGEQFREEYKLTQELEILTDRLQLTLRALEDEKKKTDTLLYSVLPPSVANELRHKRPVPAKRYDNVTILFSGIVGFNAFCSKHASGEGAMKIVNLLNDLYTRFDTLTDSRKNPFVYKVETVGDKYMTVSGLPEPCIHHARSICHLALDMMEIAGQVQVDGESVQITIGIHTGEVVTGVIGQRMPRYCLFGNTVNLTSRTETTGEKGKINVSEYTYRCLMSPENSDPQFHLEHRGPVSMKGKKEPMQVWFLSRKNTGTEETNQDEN
T1 sequence (P19686 1-690): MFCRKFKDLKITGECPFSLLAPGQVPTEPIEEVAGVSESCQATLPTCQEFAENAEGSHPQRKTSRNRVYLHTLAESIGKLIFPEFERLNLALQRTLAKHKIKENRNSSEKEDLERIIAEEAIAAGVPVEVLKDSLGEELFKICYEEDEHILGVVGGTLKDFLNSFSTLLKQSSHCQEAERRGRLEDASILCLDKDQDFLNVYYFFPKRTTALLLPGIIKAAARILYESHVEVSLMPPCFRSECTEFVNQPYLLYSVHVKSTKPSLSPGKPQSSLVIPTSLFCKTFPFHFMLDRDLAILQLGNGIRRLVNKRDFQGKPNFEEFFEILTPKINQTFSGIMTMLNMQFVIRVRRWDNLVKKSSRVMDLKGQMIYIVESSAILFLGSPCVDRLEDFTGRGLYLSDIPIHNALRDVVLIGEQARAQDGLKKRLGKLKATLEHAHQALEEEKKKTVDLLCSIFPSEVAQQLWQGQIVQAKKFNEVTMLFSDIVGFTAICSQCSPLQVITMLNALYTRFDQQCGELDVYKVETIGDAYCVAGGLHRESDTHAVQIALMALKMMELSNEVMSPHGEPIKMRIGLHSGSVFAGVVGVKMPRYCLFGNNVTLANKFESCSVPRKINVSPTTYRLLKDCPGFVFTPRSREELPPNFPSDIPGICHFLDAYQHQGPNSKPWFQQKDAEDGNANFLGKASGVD
Format: cell-based
Procedure: B-2. Action on Recombinant Guanylate Cyclase Reporter Cell Line
The cellular action of the compounds according to the invention is determined on a recombinant guanylate cyclase reporter cell line, as described in F. Wunder et al., Anal. Biochem. 339, 104-112 (2005).
Representative MEC values (MEC=minimal effective concentration) for the compounds according to the invention are shown in the following table (in some cases as mean values obtained from individual determinations): […]

Which MEC does the source give for Cc1cc(OCc2c(F)cccc2F)c2nc(C)c(C(=O)NC(C)C3CCN(C)CC3)n2c1 (racemic) [Example 77, rac-8-[(2,6-difluorobenzyl)oxy]-2,6-dimethyl-N-[1-(1-methylpiperidin-4-yl)ethyl]imidazo[1,2-a]-pyridine-3-carboxamide] here?
Its MEC is 1.00 µM.

Which MEC does the source give for Cc1nc2c(OCc3c(F)cccc3F)cc(Cl)cn2c1C(=O)NC(C)C1CCN(C)CC1 (racemic) [Example 78, rac-6-chloro-8-[(2,6-difluorobenzyl)oxy]-2-methyl-N-[1-(1-methylpiperidin-4-yl)ethyl]-imidazo[1,2-a]pyridine-3-carboxamide] here?
The MEC was 1.00 µM.

With Cc1nc2c(OCc3c(F)cccc3F)cccn2c1C(=O)NCC1NCCc2ccccc21 (racemic) [Example 80, rac-8-[(2,6-difluorobenzyl)oxy]-2-methyl-N-(1,2,3,4-tetrahydroisoquinolin-1-ylmethyl)-imidazo[1,2-a]pyridine-3-carboxamide] as the molecule, how does the MEC read?
Its MEC is 1.00 µM.

With Cc1nc2c(OCc3c(F)cccc3F)cccn2c1C(=O)NC1CCCN(C)C1 (racemic) [Example 84, rac-8-[(2,6-difluorobenzyl)oxy]-2-methyl-N-(1-methylpiperidin-3-yl)imidazo[1,2-a]-pyridine-3-carboxamide] as the molecule, how does the MEC read?
The MEC was 1.00 µM.

For Cc1nc2c(OCc3c(F)cccc3F)cccn2c1C(=O)NC1CCN(Cc2ccccc2)C1 (racemic) [Example 85, rac-N-(1-benzylpyrrolidin-3-yl)-8-[(2,6-difluoro-benzyl)oxy]-2-methylimidazo[1,2-a]-pyridine-3-carboxamide], which MEC is on record?
Its MEC is 1.00 µM.

With Cc1nc2c(OCc3c(F)cccc3F)cc(Cl)cn2c1C(=O)NCC1CCCCN1 (racemic) [Example 118, rac-6-chloro-8-[(2,6-difluorobenzyl)oxy]-2-methyl-N-(piperidin-2-ylmethyl)imidazo[1,2-a]-pyridine-3-carboxamide] as the molecule, how does the MEC read?
The MEC was 1.00 µM.

Cc1nc2c(OCc3c(F)cccc3F)cccn2c1C(=O)NC12CNCCC1C2 (racemic) [Example 125, rac-N-(3-Azabicyclo[4.1.0]hept-1-yl)-8-[(2,6-difluorobenzyl)oxy]-2-methylimidazo[1,2-a]-pyridine-3-carboxamide] was tested. Which MEC did it give?
The MEC was 1.00 µM.

Which MEC does the source give for Cc1nc2c(OCc3c(F)cccc3F)cccn2c1C(=O)NCC(C)N1CCOCC1 (racemic) [Example 132, rac-8-[(2,6-difluorobenzyl)oxy]-2-methyl-N-[2-(morpholin-4-yl)propyl]imidazo[1,2-a]pyridine-3-carboxamide] here?
Its MEC is 1.00 µM.

With Cc1nc2c(OCc3c(F)cccc3F)cccn2c1C(=O)NC(CN1CCOCC1)c1ccccc1 (racemic) [Example 134, rac-8-[(2,6-difluorobenzyl)oxy]-2-methyl-N-[2-(morpholin-4-yl)-1-phenylethyl]imidazo[1,2-a] - pyridine-3-carboxamide] as the molecule, how does the MEC read?
The MEC was 3.00 µM.

For Cc1cc(OCc2c(F)cccc2F)c2nc(C)c(C(=O)NCCNC(C)C)n2c1 (racemic) [Example 135, rac-8-[(2,6-difluorobenzyl)oxy]-N-[2-(isopropylamino)ethyl]-2,6-dimethylimidazo[1,2-a]pyridine-3-carboxamide], which MEC is on record?
The MEC was 1.00 µM.

How did the MEC turn out when Cc1cc(OCc2c(F)cccc2F)c2nc(C)c(C(=O)NCC(C)N3CCOCC3)n2c1 (racemic) [Example 138, rac-8-[(2,6-difluorobenzyl)oxy]-2,6-dimethyl-N-[2-(morpholin-4-yl)propyl]imidazo[1,2-a]-pyridine-3-carboxamide] was run?
The MEC was 0.30 µM.

For Cc1nc2c(OCc3c(F)cccc3F)cccn2c1C(=O)NCC(C(C)C)N(C)C (racemic) [Example 142, rac-8-[(2,6-difluorobenzyl)oxy]-N-[2-(dimethyl-amino)-3-methylbutyl]-2-methylimidazo[1,2-a]-pyridine-3-carboxamide], which MEC is on record?
Its MEC is 1.00 µM.

Cc1nc2c(OCc3c(F)cccc3F)cc(Cl)cn2c1C(=O)NCC(N)CC(F)(F)F (racemic) [Example 147, rac-N-(2-amino-4,4,4-trifluorobutyl)-6-chloro-8-[(2,6-difluorobenzyl)oxy]-2-methylimidazo[1,2-a]pyridine-3-carboxamide] was tested. Which MEC did it give?
The MEC was 0.30 µM.

For CCC(C)(N)CNC(=O)c1c(C)nc2c(OCc3c(F)cccc3F)cc(Cl)cn12 (racemic) [Example 157, rac-N-(2-amino-2-methylbutyl)-6-chloro-8-[(2,6-difluorobenzyl)oxy]-2-methylimidazo[1,2-a]-pyridine-3-carboxamide], which MEC is on record?
The MEC was 0.30 µM.

With COCC(C)(N)CNC(=O)c1c(C)nc2c(OCc3c(F)cccc3F)cc(Cl)cn12 (racemic) [Example 159, rac-N-(2-amino-3-methoxy-2-methylpropyl)-6-chloro-8-[(2,6-difluorobenzyl)oxy]-2-methylimidazo[1,2-a]pyridine-3-carboxamide] as the molecule, how does the MEC read?
Its MEC is 0.30 µM.

Which MEC does the source give for COCC(C)(N)CNC(=O)c1c(C)nc2c(OCc3c(F)cccc3F)cc(C)cn12 (racemic) [Example 166, rac-N-(2-amino-3-methoxy-2-methylpropyl)-8-[(2,6-difluorobenzyl)oxy]-2,6-dimethylimidazo[1,2-a]pyridine-3-carboxamide] here?
Its MEC is 0.30 µM.

Which MEC does the source give for Cc1nc2c(OCc3c(F)cccc3F)cccn2c1C(=O)NCC(C)(N)CC(C)C (racemic) [Example 202, rac-N-(2-Amino-2,4-dimethylpentyl)-8-[(2,6-difluorobenzyl)oxy]-2-methylimidazo[1,2-a]pyridine-3-carboxamide] here?
The MEC was 0.10 µM.

For Cc1nc2c(OCc3c(F)cccc3F)cccn2c1C(=O)NCC(N)COC(C)C (racemic) [Example 205, rac-N-(2-Amino-3-isopropoxypropyl)-8-[(2,6-difluorobenzyl)oxy]-2-methylimidazo[1,2-a]-pyridine-3-carboxamide], which MEC is on record?
Its MEC is 0.30 µM.

With Cc1cc(OCc2c(F)cccc2F)c2nc(C)c(C(=O)NCC(N)COC(C)C)n2c1 (racemic) [Example 206, rac-N-(2-Amino-3-isopropoxypropyl)-8-[(2,6-difluorobenzyl)oxy]-2,6-dimethylimidazo[1,2-a]-pyridine-3-carboxamide] as the molecule, how does the MEC read?
The MEC was 0.30 µM.

Which MEC does the source give for Cc1nc2c(OCc3c(F)cccc3F)cccn2c1C(=O)NCC(N)C(F)(F)F (racemic) [Example 207, rac-N-(2-Amino-3,3,3-trifluoropropyl)-8-[(2,6-difluorobenzyl)oxy]-2-methylimidazo[1,2-a]-pyridine-3-carboxamide] here?
The MEC was 1.00 µM.

Which MEC does the source give for COCC(C)(N)CNC(=O)c1c(C)nc2c(OCc3c(F)cccc3F)cccn12 (racemic) [Example 213, rac-N-(2-Amino-3-methoxy-2-methylpropyl)-8-[(2,6-difluorobenzyl)oxy]-2-methylimidazo[1,2-a]-pyridine-3-carboxamide] here?
Its MEC is 1.00 µM.

Which MEC does the source give for Cc1nc2c(OCc3c(F)cccc3F)cc(Cl)cn2c1C(=O)NCC(N)COC(C)C (racemic) [Example 217, rac-N-(2-Amino-3-isopropoxypropyl)-6-chloro-8-[(2,6-difluorobenzyl)oxy]-2-methylimidazo[1,2-a]pyridine-3-carboxamide] here?
Its MEC is 1.00 µM.

Which MEC does the source give for Cc1cc(OCc2c(F)cccc2F)c2nc(C)c(C(=O)NCC(C)(N)CC(C)C)n2c1 (racemic) [Example 218, rac-N-(2-Amino-2,4-dimethylpentyl)-8-[(2,6-difluorobenzyl)oxy]-2,6-dimethylimidazo[1,2-a]-pyridine-3-carboxamide] here?
Its MEC is 0.10 µM.

With Cc1nc2c(OCc3c(F)cccc3F)cc(Cl)cn2c1C(=O)NCC(C)(N)CC(C)C (racemic) [Example 225, rac-N-(2-Amino-2,4-dimethylpentyl)-6-chloro-8-[(2,6-difluorobenzyl)oxy]-2-methylimidazo[1,2-a]pyridine-3-carboxamide] as the molecule, how does the MEC read?
Its MEC is 0.30 µM.

For Cc1nc2c(OCc3c(F)cccc3F)cccn2c1C(=O)NCC(N)C(F)(F)C(F)F (racemic) [Example 230, rac-N-(2-Amino-3,3,4,4-tetrafluorobutyl)-8-[(2,6-difluorobenzyl)oxy]-2-methylimidazo[1,2-a]-pyridine-3-carboxamide], which MEC is on record?
Its MEC is 1.00 µM.
